Test results reported in the supplement of paper PMC4862054.
Several values for one entry are separate records, joined by “and”; a condition that tells them apart may be missing. Identical values can stand only once.

Columns and labels:
Conditions in all cases: incubation time: 72 h
CAL-51 [1] = assay: normalised viability (% of control), CellTiter-Blue; higher = more viable cells (about 100 = DMSO control)
Summary of the method: (§1)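 Each entry is normalised viability at a single listed concentration within a series. It comes from breast cancer cell lines incubated 72 h with compound in 384-well plates, then measured with CellTiter-Blue fluorescence at 560/590 nm. Every plate was normalised between vehicle (100) and a positive kill control (0).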

HCC1937 [2] = assay: as above
Summary of the method: as §1

HCC1143 [3] = assay: as above
Summary of the method: as §1

MDA-MB-436 [4] = assay: as above
Summary of the method: as §1

MFM-223 [5] = assay: as above
Summary of the method: as §1

DU-4475 [6] = assay: as above
Summary of the method: as §1

SK-BR-3 [7] = assay: as above
Summary of the method: as §1

MDA-MB-453 [8] = assay: as above
Summary of the method: as §1

CAL-120 [9] = assay: as above
Summary of the method: as §1

BT-549 [10] = assay: as above
Summary of the method: as §1

HDQ-P1 [11] = assay: as above
Summary of the method: as §1

CAL-51 [12] = assay: drug sensitivity score (DSS), CellTiter-Blue viability (DSS (AUC-based score)); higher = stronger viability inhibition; extreme values may be limits of the assay
Protocol: (§2)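 DSRT with the CellTiter-Blue (resazurin reduction) viability readout, fluorescence 560/590 nm, 72 h incubation. Plates were normalised to DMSO and benzethonium chloride controls. DSS is computed from the area under the fitted dose-response curve (5 or 9 concentrations).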

CAL-148 = assay: as above
Protocol: as §2

HCC1937 [13] = assay: as above
Protocol: as §2

CAL-85-1 = assay: as above
Protocol: as §2

MDA-MB-231 = assay: as above
Protocol: as §2

BT-474 = assay: as above
Protocol: as §2

MDA-MB-468 = assay: as above
Protocol: as §2

HCC1143 [14] = assay: as above
Protocol: as §2

MDA-MB-436 [15] = assay: as above
Protocol: as §2

MFM-223 [16] = assay: as above
Protocol: as §2

DU-4475 [17] = assay: as above
Protocol: as §2

SK-BR-3 [18] = assay: as above
Protocol: as §2

Hs578T = assay: as above
Protocol: as §2

MDA-MB-453 [19] = assay: as above
Protocol: as §2

CAL-120 [20] = assay: as above
Protocol: as §2

BT-549 [21] = assay: as above
Protocol: as §2

HDQ-P1 [22] = assay: as above
Protocol: as §2

Row | SMILES | normalised viability (CAL-51 [1]; 10 nM) | normalised viability (HCC1937 [2]; 1000 nM) | normalised viability (MDA-MB-436 [4]; 1000 nM) | normalised viability (MFM-223 [5]; 1000 nM) | normalised viability (DU-4475 [6]; 10 nM) | normalised viability (SK-BR-3 [7]; 1000 nM) | normalised viability (MDA-MB-453 [8]; 10 nM) | normalised viability (CAL-120 [9]; 1000 nM) | normalised viability (BT-549 [10]; 1000 nM) | normalised viability (HDQ-P1 [11]; 10 nM) | drug sensitivity score (CAL-51 [12]) | drug sensitivity score (CAL-148) | drug sensitivity score (CAL-85-1) | drug sensitivity score (MDA-MB-468) | drug sensitivity score (MDA-MB-436 [15]) | drug sensitivity score (MFM-223 [16]) | drug sensitivity score (DU-4475 [17]) | drug sensitivity score (SK-BR-3 [18]) | drug sensitivity score (CAL-120 [20]) | drug sensitivity score (BT-549 [21]) | also measured
1 | O=C1NC(=O)[C@@H](c2cn3c4c(cccc24)CCC3)[C@@H]1c1c[nH]c2ccccc12 [Tivantinib] | 108% | 30.4% | 52.3% | 57.8% | 82.9% | 21.5% | 107% | 29.7% | 26.8% | 100% | 2.15 | 1.69 | 4.04 | 1.21 | 7.87 | 0 | 1.35 | 2.61 | 4.4 | 4.05 | normalised viability (HCC1143 [3]; 1000 nM): 55.2%; drug sensitivity score (HCC1937 [13]): 8.31; drug sensitivity score (MDA-MB-231): 1.91; drug sensitivity score (BT-474): 1.07; drug sensitivity score (HCC1143 [14]): 0; drug sensitivity score (Hs578T): 2.65; drug sensitivity score (MDA-MB-453 [19]): 6.08; drug sensitivity score (HDQ-P1 [22]): 0
2 | C/C(=C\c1csc(C)n1)[C@@H]1C[C@@H]2O[C@]2(C)CCC[C@H](C)[C@H](O)[C@@H](C)C(=O)C(C)(C)[C@@H](O)CC(=O)O1 [Patupilone] | 59.1% | 20.4% | 40.1% | 45.7% | 57.5% | 15.2% | 47.3% | 23.4% | 22.1% | 92.5% | 20.4 | 24.8 | 24.6 | 15.3 | 15.4 | 12.7 | 22.3 | 23.7 | 19.8 | 22.4 | normalised viability (HCC1143 [3]; 1000 nM): 32%; drug sensitivity score (HCC1937 [13]): 27; drug sensitivity score (MDA-MB-231): 28.5; drug sensitivity score (BT-474): 18.2; drug sensitivity score (HCC1143 [14]): 16.3; drug sensitivity score (Hs578T): 23.1; drug sensitivity score (MDA-MB-453 [19]): 22.5; drug sensitivity score (HDQ-P1 [22]): 12.2
3 | CC[C@]1(O)C[C@H]2CN(CCc3c([nH]c4ccccc34)[C@@](C(=O)OC)(c3cc4c(cc3OC)N(C=O)[C@H]3[C@@](O)(C(=O)OC)[C@H](OC(C)=O)[C@]5(CC)C=CCN6CC[C@]43[C@@H]65)C2)C1 [Vincristine] | 70.6% | 13.2% | 30.2% | 27.9% | 56% | 16.6% | 26.9% | 19.9% | 14.6% | 46.4% | 17.5 and 26.3 | 23 and 26.8 | 17.9 and 25 | 23.8 and 23.7 | 18 and 21 | 16.9 and 22.7 | 18.9 and 28.9 | 33.6 and 41.1 | 27.8 and 35.7 | 25.5 and 32 | normalised viability (CAL-51 [1]; 100 nM): 18%; normalised viability (HCC1937 [2]; 10000 nM): 16.1%; normalised viability (HCC1143 [3]; 1000 nM): 32.1%; normalised viability (HCC1143 [3]; 10000 nM): 33.6%; normalised viability (MDA-MB-436 [4]; 10000 nM): 50.3%; normalised viability (MFM-223 [5]; 10000 nM): 20.5%; normalised viability (DU-4475 [6]; 100 nM): 19.5%; normalised viability (SK-BR-3 [7]; 10000 nM): 16.8%; normalised viability (MDA-MB-453 [8]; 100 nM): 30.8%; normalised viability (CAL-120 [9]; 10000 nM): 20.6%; normalised viability (BT-549 [10]; 10000 nM): 20.2%; normalised viability (HDQ-P1 [11]; 100 nM): 43.8%; drug sensitivity score (HCC1937 [13]): 23.5 and 35; drug sensitivity score (MDA-MB-231): 27 and 34.4; drug sensitivity score (HCC1143 [14]): 22.6 and 27.4; drug sensitivity score (Hs578T): 26.5 and 37.7; drug sensitivity score (MDA-MB-453 [19]): 19.7 and 30.5; drug sensitivity score (HDQ-P1 [22]): 17.8 and 20.6
4 | Cc1ccc(NC(=O)c2ccc(CN3CCN(C)CC3)cc2)cc1Nc1nccc(-c2cccnc2)n1 [Imatinib] |  |  |  |  |  |  |  |  |  |  | 0 | 0 | 0 | 0 | 0 | 0 | 0 | 0 | 0 | 0 | normalised viability (CAL-51 [1]; 100 nM): 102% and 98.4%; normalised viability (HCC1937 [2]; 10000 nM): 88%; normalised viability (HCC1143 [3]; 10000 nM): 86.7% and 88.8%; normalised viability (MDA-MB-436 [4]; 10000 nM): 97.6% and 106%; normalised viability (MFM-223 [5]; 10000 nM): 105% and 98%; normalised viability (DU-4475 [6]; 100 nM): 89.4% and 111%; normalised viability (SK-BR-3 [7]; 10000 nM): 80.8% and 91.9%; normalised viability (MDA-MB-453 [8]; 100 nM): 104% and 99.3%; normalised viability (CAL-120 [9]; 10000 nM): 114%; normalised viability (BT-549 [10]; 10000 nM): 93% and 76.6%; drug sensitivity score (HCC1937 [13]): 0; drug sensitivity score (MDA-MB-231): 0; drug sensitivity score (BT-474): 0; drug sensitivity score (HCC1143 [14]): 0; drug sensitivity score (Hs578T): 0; drug sensitivity score (HDQ-P1 [22]): 0
5 | Cc1cc2c(C(C)C)c(O)c(O)c(C=O)c2c(O)c1-c1c(C)cc2c(C(C)C)c(O)c(O)c(C=O)c2c1O [Gossypol] |  |  |  |  |  |  |  |  |  |  |  |  |  |  |  |  |  |  |  |  | normalised viability (CAL-51 [1]; 1000 nM): 92.1%; normalised viability (HCC1937 [2]; 100000 nM): 6.06%; normalised viability (HCC1143 [3]; 100000 nM): 15.7%; normalised viability (MDA-MB-436 [4]; 100000 nM): 1.2%; normalised viability (MFM-223 [5]; 100000 nM): 4.14%; normalised viability (DU-4475 [6]; 1000 nM): 113%; normalised viability (SK-BR-3 [7]; 100000 nM): 1.49%; normalised viability (MDA-MB-453 [8]; 1000 nM): 105%; normalised viability (CAL-120 [9]; 100000 nM): 3.6%; normalised viability (BT-549 [10]; 100000 nM): 2.19%; normalised viability (HDQ-P1 [11]; 1000 nM): 128%
6 | CO[C@H]1C[C@@H]2CC[C@@H](C)[C@@](O)(O2)C(=O)C(=O)N2CCCC[C@H]2C(=O)O[C@H]([C@H](C)C[C@@H]2CC[C@@H](OCCO)[C@H](OC)C2)CC(=O)[C@H](C)/C=C(\C)[C@@H](O)[C@@H](OC)C(=O)[C@H](C)C[C@H](C)/C=C/C=C/C=C/1C [Everolimus] | 39.8% and 39.5% | 45.8% and 46.6% | 93.8% and 71.5% | 51.6% and 26.8% | 64.3% and 57.3% | 55.1% and 36.7% | 32.7% and 28.1% | 53.2% and 38.1% | 56.4% and 46.6% | 79.4% and 60.5% | 22.7 and 22.2 | 23 and 25.5 | 15 and 16.7 | 6.16 and 13.5 | 0 | 20 and 19.4 | 12.8 and 16.3 | 16.9 and 20.1 | 19.7 and 24.1 | 9.4 and 21.3 | drug sensitivity score (BT-474): 13.2 and 16; drug sensitivity score (MDA-MB-453 [19]): 29.7 and 31.6
